Where no end group is shown, it is not given here.
Test: Serum stability assay
Assay type: in vitro ADME, human
Settings: peptide 6.6 μM
Description: The serum stability of the peptides was tested using human male serum (Sigma, USA), as previously described ([Chan et al., 2011]). All peptides were tested at a final concentration of 6.6 μM after dilution from a stock solution at 200 μM. The serum was centrifuged at 17,000g for 10 min to remove the lipid component, and the supernatant incubated at 37°C for 15 min, prior to conducting the assay. The peptides were incubated in serum or phosphate-buffered saline (PBS) at 37°C, and aliquots were taken at 0, 3, 8, and 24 h (40-μl aliquots were taken in triplicate). The aliquots of serum were quenched with 40 μl of 6 M urea and incubated for 10 min at 4°C. The aliquots were then quenched with 40 μl of 20% trichloroacetic acid (TCA) and incubated for another 10 min at 4°C to precipitate serum proteins. Finally, samples were centrifuged at 17,000g for 10 min, and 90 μl of the supernatant was analyzed on reversed-phase HPLC using a Phenomenex Jupiter Proteo C12 analytical column (150 mm × 2.00 mm, 4 μm, 90 Å, Phenomenex, Torrance, CA, USA) and a linear gradient of solvent B [90% acetonitrile/10% H2O, 0.045% trifluoroacetic acid (TFA)] at a flow rate of 0.4 ml/min using an Agilent 1260 Infinity system (Agilent Technologies, Hanover, Germany). The control samples contained equivalent amounts of the peptides in PBS and were subjected to the same treatment procedure. The stability at each time point was calculated based on the area of the RP-HPLC peaks following incubation with serum at 214 nm as a percentage of the area of 0-h serum-treated peptides ([Chan et al., 2013]).

Work on YGPQALAR-NH2 [CTX-4] yielded a remaining at 3 h, 6.6 μM (lipid component removed by centrifugation, human male serum (lipid removed by centrifugation, pre-incubated 15 min at 37°C), 3 h, RP-HPLC C12 peak area at 214 nm as % of 0-h serum-treated peptide, triplicate, mean, read-out: peptide remaining after 3 h in human serum) of under 10%.
In the case of QMARKADDAAG-NH2 [CTX-2], the “relative stability in human serum among the fragments (in words)” value (human male serum, 37°C, 0-24 h, RP-HPLC at 214 nm) is reported as “most stable of the peptides tested”.
With MAMPAFTTDH-NH2 [CTX-1] the “detection of peptide in human serum over time” value (human male serum, 37°C, 24 h, RP-HPLC at 214 nm) was “could be detected up to 24 h” and the remaining at 8 h, 6.6 μM (lipid component removed by centrifugation, human male serum (lipid removed by centrifugation, pre-incubated 15 min at 37°C), 8 h, RP-HPLC C12 peak area at 214 nm as % of 0-h serum-treated peptide, triplicate, mean, read-out: peptide remaining at the 8-h time point in human serum) was over 18%.

From paper PMC6435586 (Frontiers in Pharmacology, 2019)
